Patent US12569437B2, “Disease-site-specific liposomal formulation” (Osaka University, priority 2017, dated 2026)
Marks after values point to notes of the source that are not given here.

Key:
[1] = system: rat monocrotaline (MCT)-induced severe heart failure (pulmonary hypertension) model; assay: Survival rate in rat monocrotaline-induced pulmonary hypertension model; type: in vivo; conditions: 42 days after MCT
Excerpt: The produced Formulation 21 (ONO-1301Lipo formulation) as a test substance was intermittently administered intravenously once weekly to a rat monocrotaline (MCT)-induced severe heart failure (pulmonary hypertension) model from day 7 of the MCT administration, and the survival rate was compared with a group in which compound (A) (ONO-1301) was repeatedly orally administered; a group in which compound (A) was intermittently administered intravenously once weekly; and, as a positive control, a group in which an ET-1 antagonist (bosentan) was orally administered. In the control group, physiological saline (vehicle) was administered once weekly by intravenous administration.
For animals, Slc: Wistar male rats, 5 weeks old at the start of the test, and 66.4 to 90.8 g at arrival (Japan SLC, Inc.) were used. Monocrotaline (hereinafter referred to as “MCT”), lot No.: SLBG1999V (Sigma-Aldrich Corporation), was administered once subcutaneously at the back of the rats at a dose of 60 mg/kg. Six days after the MCT administration, the animals were divided into groups according to the weight stratification assignment method (Table 19).

[2] = Body weight and heart and lung weights in J2N-k hamsters; type: in vivo, hamster; conditions: for Body weight (g) at dissection: week 8
Description: Dissection was performed as follows. After all of the blood was collected from the abdominal aorta, and the hamsters were euthanized under isoflurane anesthesia, the heart and lungs were removed and weighed. After the weights thereof were measured, the removed parts, including the left and right ventricles, were divided into three parts; i.e., apical, middle, and basal parts, at intervals of about 2 mm along the short axis.
Tables 26 and 27 show the body weight change at the time of grouping and at the time of dissection, and the weights of heart and lung at the time of dissection.

[3] = system: rat model of ischemia by complete coronary artery ligation; assay: Echocardiography (EF %, % FS) in rat model of ischemia by complete coronary artery ligation; type: in vivo
Description: An improvement in the cardiac function against ischemic heart disease and an effect of preventing death from heart failure by intermittent intravenous administration of Formulation 25 (ONO-1301Lipo) or compound (A) (ONO-1301) were analyzed by using the left ventricular ejection fraction (hereinafter referred to as “EF %”), left ventricular fractional shortening (hereinafter referred to as “% FS”), and histological evaluation, based on echocardiography, as indices.
Male Sprague-Dawley rats (CLEA Japan, Inc., 6 weeks old when arrived) were anesthetized with a liquid mixture of 0.5 mg/kg of midazolam (Dormicum Injection 10 mg, Astellas Pharma Inc.) and 2 mg/kg of xylazine (Celactal 2% injection, Bayer Japan Ltd.). Thereafter, the animal tail veins were secured, and Propofol (1% Diprivan Injection; AstraZeneca K.K.) was continuously infused at 6 to 10 mg/kg/hr with a syringe pump (Terufusion TE-3310N; Terumo Corporation) to maintain deep anesthesia. Thereafter, a tracheal cannula (a cut-down catheter with an outside diameter of 2.0 mm, produced by JMS Co., Ltd.) was inserted and indwelled, and a respirator (for small animals; Shinano Seisakusho) was connected to maintain breathing at a stroke volume of 1 mL/100 g/stroke (±1 mL) and a stroke rate of 70 times/min (±10 times). Thereafter, the animals were fixed in a recumbent position from a dorsal fixed position so that the left chest faced upward, and the epidermis and muscle layer between the third to fourth or fourth to fifth ribs were incised with a surgical knife. After confirming that the knife reached the thoracic cavity, the intercostal space was widened with a rib spreader, and a state in which the anterior descending branch (hereinafter referred to as “LAD”) from the left atrial appendage was directly visible at the front was secured.
Thereafter, the translucent thin pericardium was removed with tweezers to expose the myocardium. Thereafter, the LAD located at the margin of the left atrial appendage was pierced and secured with a nylon thread with a 6-0 or 7-0 needle at a depth of 2 to 3 mm using a microneedle holder, and the LAD was completely ligated. Thereafter, the muscle layer and epidermis were sutured and closed with a 4-0 or 5-0 nylon thread. After the chest was closed, 50 mg of cefamedin was subcutaneously administered to the treatment site, and the treatment was terminated.
Echocardiography was performed to confirm the cardiac function improving effect of the test substances using the left ventricular ejection fraction (hereinafter referred to as “EF %”) as an index.
The test was performed 23 hours after the preparation of the model (test for grouping), the animals whose EF % value decreased by 25% or more of that of normal animals were selected, grouping was performed, and a solution for administration of the test substances was administered by tail vein intravenous administration 24 hours after the preparation of the model. Thereafter, echocardiography was performed 7 and 14 days after the test substance administration.

[4] = system: rat model of ischemia by complete coronary artery ligation; assay: Infarct area evaluation in rat myocardial ischemia model; type: in vivo; conditions: 3.0 mg/kg single i.v., day 14
Description: (§1) Dissection was performed after the completion of the echocardiography at day 14 after the administration of the test substance. For dissection, all of the blood was collected from the abdominal aorta, and the rats were euthanized under isoflurane anesthesia; thereafter, the heart was removed and weighed. After measuring the heart weight, the infarct area, including the left and right ventricles, was divided into three parts along the short axis.
For the sections, the apical portion was removed, and the middle area was sectioned into two parts at an interval of about 2 mm. Thereafter, the infarct area of the two sections on the apical and basal sides was measured. The infarct area was evaluated based on the ratio of the infarct area to the entire left ventricular area, and the ratio of the length of the normal area or the infarct area to the left ventricular outer diameter.
[…]

[5] = Body weight and heart weight in rat myocardial ischemia model; type: in vivo
Description: as §1

[6] = 3.0 mg/kg single i.v. 24 hours after infarction, day 7
[7] = 3.0 mg/kg single i.v. 24 hours after infarction, day 14
[8] = group 3.0 mg/kg single i.v., 23 hours after LAD ligation, before administration

O=C(O)COc1cccc2c1CCC=C2CCO/N=C(\c1ccccc1)c1cccnc1 [Compound (A), ({5-[2-({[(1E)-phenyl(pyridin-3-yl)methylene]amino}oxy)ethyl]-7,8-dihydronaphthalen-1-yl}oxy)acetic acid]
Survival rate (%) ([1]; intravenous 1 mg/kg/week from day 7): 20% | Survival rate (%) ([1]; oral 3 mg/kg × twice/day from day 7): 50* % | Body weight (g) at dissection ([2]; 3.0 mg/kg i.v. once/2 weeks): 144.4 ± 13.3 g | Body weight (g) at dissection ([2]; 3.0 mg/kg p.o. twice/day): 128.6 ± 3.0 g | Body weight (g) Before drug administration ([2]; group 3.0 mg/kg i.v. once/2 weeks): 128.7 ± 10.4 g | Body weight (g) Before drug administration ([2]; group 3.0 mg/kg p.o. twice/day): 118.8 ± 9.6 g | % FS 1 W [3, 6]: 25.4 ± 5.6% | EF % 1 W [3, 6]: 54.6 ± 8.8% | % FS 2 W [3, 7]: 24.5 ± 4.4% | EF % 2 W [3, 7]: 53.2 ± 7.1% | % FS Pre [3, 8]: 26.5 ± 3.7 % | EF % Pre [3, 8]: 56.7 ± 5.5 % | Left ventricular area (mm^2) Infarct region ([4]; first of two sections): 18.1 ± 5.18 mm^2 | Left ventricular area (mm^2) Normal region ([4]; first of two sections): 31.1 ± 2.83 mm^2 | Left ventricular area Infarct rate (%) ([4]; first of two sections): 36 ± 8.0% | Left ventricular outer diameter (cm) Infarct region ([4]; first of two sections): 1.5 ± 0.15 cm | Left ventricular outer diameter (cm) Normal region ([4]; first of two sections): 1.7 ± 0.41 cm | Left ventricular outer diameter Infarct rate (%) ([4]; first of two sections): 46 ± 7.5% | Left ventricular area (mm^2) Infarct region ([4]; second of two sections): 14.6 ± 3.23 mm^2 | Left ventricular area (mm^2) Normal region ([4]; second of two sections): 41.0 ± 8.03 mm^2 | Left ventricular area Infarct rate (%) ([4]; second of two sections): 26 ± 2.2% | Left ventricular outer diameter (cm) Infarct region ([4]; second of two sections): 1.2 ± 0.37 cm | Left ventricular outer diameter (cm) Normal region ([4]; second of two sections): 2.3 ± 0.41 cm | Left ventricular outer diameter Infarct rate (%) ([4]; second of two sections): 34 ± 10.2% | Body weight (g) At dissection ([5]; 3.0 mg/kg single i.v., day 14): 406.7 ± 37.4 g | Body weight (g) Before drug administration ([5]; group 3.0 mg/kg single i.v.): 325.1 ± 22.3 g | Body weight (g) Before preparation of AMI ([5]; group 3.0 mg/kg single i.v.): 339.7 ± 13.6 g
